The record followed here is patent US20070172444A1, “Hair tonics and method of screening the same” (Shiseido Company, Ltd., priority 2000, published 2007).

Residues, ends and D or L forms follow the SMILES beside them. *: point of attachment. Cbz = O=C(OCc1ccccc1)*; CH2F = FC*

The test system of series [1] is human hair follicles. The series is described as follows: Human hair follicle organ culture (hair extension, retention of hair bulb morphology). Format: cell-based. The note with it: for extension of hair: 7 days. The method, then:
Three antibiotics of penicillin, streptomycin and fungizone were added to the Williams E medium (Gibco), and the medium to which 10 ng/ml hydrocortisone, 10 μg/ml insulin, 10 ng/ml sodium pentaselenate and 10 μg/ml transferrin were further added was made the insulin-containing medium, and the medium to which they were not added was made the basal medium, and were used in a human hair follicle organ culture.
(§1) Using a microtome under a stereoscopic microscope, hair follicles in the growth phase were isolated from a human scalp. The isolated hair follicles were washed in the basal medium followed by the measurement of length, and then immersed in the insulin-containing medium (a 24-well microplate was used; 1 ml per well), and was cultured overnight at 37° C. in an atmospheric condition containing 5% CO2. After measuring the length again, hair follicles of which length extension was 0.25 mm or longer and of which morphology in the growth phase was retained were selected, and were divided in groups of 10 to 12 pieces so that the length extension may become equal. For each group, the medium was changed to one containing test substances, and the culturing was continued under the above gas phase condition.
The extension of hair follicles was determined over time by inserting a micrometer into the eyepiece of an inverted microscope. Photographs of the whole hair follicles and hair bulbs were taken by a camera connected to the inverted microscope.
On the second day of culturing, the medium was changed to one in which TGF-β2 was added to a final concentration of 50 ng/ml, and the culturing was continued for five days while observing the extension of hair follicles and morphological changes. […] Thus, it was estimated that TGF-β2 has an effect of promoting the regression phase.
The method was performed in accordance with the human hair follicle organ culture method. On the second day of culturing, the medium was changed to one in which anti-TGF-β antibody (manufactured by Genzyme) having the effect of neutralizing TGF-β or the control mouse IgG were added to a final concentration of 20 μg/ml or 100 μg/ml, and culturing was continued for 4-7 days while observing the extension and morphological changes of hair follicles.
The medium was changed to one in which fetuin (final concentration: 1, 10, 50 μM) or the control bovine serum albumin (final concentration: 50 μM) was added to the basal medium, and culturing was continued for a further 7 days while observing the extension and morphological changes of hair follicles.
as §1, with “that” for “that the”
The extension of hair follicles was determined with time by inserting a micrometer into the eyepiece of an inverted microscope. Photographs of the whole hair follicles and hair bulbs were taken by a camera connected to the inverted microscope.
Carbobenzoxy-valyl-alanyl-β-methyl-aspar-1-yl-fluoromethane (z-VAD-fmk) is known to inhibit almost all caspases. […] The medium was changed to one in which z-VAD-fmk (final concentration: 1, 10, 100 μM) was dissolved in DMSO or the control DMSO was added to the basal medium, and culturing was continued for further 7 days while observing the extension and morphological changes of hair follicles. […]

Series [2] concerns the target T1, TGF-β2 (Homo sapiens, UniProt P61812).
T1 construct: host or cells: added to the culture medium of human dermal papilla cells
T1 sequence (P61812 303-414 limits assumed): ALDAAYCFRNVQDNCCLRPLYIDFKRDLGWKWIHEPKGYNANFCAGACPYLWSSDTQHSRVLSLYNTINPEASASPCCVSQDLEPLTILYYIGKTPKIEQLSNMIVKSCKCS
The series is described as follows: Determination of PAI-1 in human dermal papilla cells cultured with TGF-β2. It counts as cell-based. The procedure: The inhibition of effect of TGF-β2 can be determined as follows. Utilizing the fact that TGF-β2 induces the production of PAI-1, cells (e.g., dermal papilla cells) are cultured in the coexistence of TGF-β2 and the test substance, PAI-1 in the medium is determined, and to determine whether or not PAI-1 was inhibited as compared to the control.
The medium in which 10% bovine fetal serum was added to the DMEM medium to which three antibiotics of penicillin, streptomycin and fungizone had been added was used, and human dermal papilla cells were cultured in a 96-well plate (about 7,500 cells per well). First, dose dependency on TGF-β2 of the increased expression of PAI-1 was examined. At a suitable cell density, the medium was changed to ones containing various concentrations of TGF-β2, and was further cultured for 24 hours. Ten μl of the medium was taken out, and quantitated using a commercially available PAI-1 determination kit (TintElize PAI-1: biopool).
Then, the present inventors investigated, as described below, whether or not TGF-β2 has the effect of inhibiting the enhanced expression of PAI-1. Phyllodulcin was dissolved in DMSO at concentrations of 0.05-50 μg/ml and used. […] At the end of culturing, the survival of cells was also determined by the Alamar Blue method.

Series [3] deals with human dermal papilla cells. Put plainly: Cell survival by the Alamar Blue method. Format: cell-based. The note with it: after 24 hours culture; 100% in the case of no addition. The procedure: Then, the present inventors investigated, as described below, whether or not TGF-β2 has the effect of inhibiting the enhanced expression of PAI-1. Phyllodulcin was dissolved in DMSO at concentrations of 0.05-50 μg/ml and used. After culturing for 24 hours in a medium containing 1 ng/ml TGF-β2, 10 μl of the medium was used to determine the amount of PAI-1. At the end of culturing, the survival of cells was also determined by the Alamar Blue method.
This was performed as described below. Thus, after washing twice in a fresh medium, the medium was changed to one containing 1/10 amount of Alamar Blue (Alamar Bioscience), and was incubated at 37° C. (5% CO2) for four hours. After incubation, absorbance at 595 nm and 570 nm was measured by a microplate reader in order to calculate the Alamar Blue reduction rate for each well, which was divided by the Alamar Blue reduction rate for the negative control in which no phyllodulcin samples were added, and the survival of the cells were calculated.
A general note: Alamar Blue is a resazurin reagent that responds to reducing activity.

Series [4] relates to isolated human hair. The series is described as follows: Extension of isolated human hair. It counts as cell-based. The note with it: phyllodulcin added to isolated human hair, vs control. The method, then: The extension of hair when phyllodulcin was added to the isolated human hair was investigated. The result is as shown in a photograph in FIG. 20.
The test system of series [5] is precursor caspase-3. The series is described as follows: Detection of precursor and activated caspase-3 in Pam212 cells cultured with TNF α and CHX. Format: cell-based, mouse. The note with it: TNF α and CHX added, incubated six hours, antibody detection. An excerpt: The precursor caspase-3 was detected in almost all cells, whereas activated caspase-3 was not detected.

With `COc1ccc([C@H]2Cc3cccc(O)c3C(=O)O2)cc1O` [phyllodulcin], the hair extension entry in series [1] (0.6 μg/ml, eighth day of culturing, vs solvent control) is listed as “significantly promoted”. For the same molecule, the “amount of PAI-1” value in series [2] (1 ng/ml TGF-β2, 24 hours, 100 in the case of no addition, phyllodulcin 0.05-50 μg/ml) is reported as 18. The “Alamar Blue reduction rate (%)” value in series [3] is listed as 95%. Further, the extension of hair entry in series [4] is recorded as “the hair is extended as compared to the control”.
Regarding `COC(=O)CC(NC(=O)C(C)NC(=O)C(NC(=O)OCc1ccccc1)C(C)C)C(=O)CF` (stereo not drawn) [z-VAD-fmk, Carbobenzoxy-valyl-alanyl-β-methyl-aspar-1-yl-fluoromethane] (Cbz-Val-Ala-Asp(OMe)-CH2F; configuration not given here), the “Ratio of hair follicles in which the morphology of the hair bulb portions was retained” value was 37.5% (3/8) in series [1] (Experiment 2 (day 4), 10 μM, control 12.5%) and 60% (6/10) in series [1] (Experiment 2 (day 6) as printed, 20 μM, control 20%). Further, in series [1] (z-VAD-fmk 1, 10, 100 μM, vs control DMSO), the extension of hair result is “significantly extended hair”. The “activation of the precursor caspase-3” value in series [5] is “completely inhibit the activation of the precursor caspase-3”.
Turning to TGF-β2: transforming growth factor β2, the “regression phase-like morphological changes” value in series [1] (TGF-β2 50 ng/ml, sixth day of culturing, vs non-added control) is reported as “regression phase-like morphological changes were promoted”. In addition, the “expression of PAI-1” value in series [2] (various concentrations of TGF-β2, 24 hours) is recorded as “an increase in PAI-1 in a dose dependent manner”.
As to fetuin, the extension of hair result in series [1] (fetuin 1, 10, 50 μM, vs control bovine serum albumin 50 μM) is “significantly extended hair”.
